Assay results as given in ChEMBL document CHEMBL1201862, “PubChem BioAssay data set” (2004).
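96-well plates; 48 h exposure; 5 concentrations. Endpoints by linear interpolation between flanking doses. Not reached: highest tested concentration assigned. GI50 marks 50% less growth.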 Active and inactive are the calls of the source. No stated cut-off is given here; in the data, active = GI50 up to about 1.1 µM and inactive = higher.

Columns and labels:
Experiment in all cases: DTP human tumour cell line panel, 48 h
[1] = tested on: SF-295
[2] = tested on: MDA-N
[3] = tested on: HOP-92
[4] = tested on: K562
[5] = tested on: RPMI-8226
[6] = tested on: SNB-19
[7] = tested on: SN12C
[8] = tested on: UACC-62
[9] = tested on: ACHN
[10] = tested on: LOX IMVI
[11] = tested on: UO-31
[12] = tested on: KM12
[13] = tested on: MDA-MB-231
[14] = tested on: NCI-H522
[15] = tested on: Hs-578T
[16] = tested on: HOP-62
[17] = tested on: Malme-3M
[18] = tested on: EKVX
[19] = tested on: T47D
[20] = tested on: SK-MEL-28

Structure (SMILES)	GI50 [1]	GI50 [2]	GI50 [3]	GI50 [4]	GI50 [5]	GI50 [6]	GI50 [7]	GI50 [8]	GI50 [9]	GI50 [10]	GI50 [11]	GI50 [12]	GI50 [13]	GI50 [14]	GI50 [15]	GI50 [16]	GI50 [17]	GI50 [18]	GI50 [19]	GI50 [20]
CC(=O)Nc1ccc(-c2nc3ccccc3s2)cc1Cl	41.9 µM (inactive)	> 100 µM (inactive)	54.2 µM (inactive)	> 100 µM (inactive)	> 100 µM (inactive)	67.5 µM (inactive)	> 100 µM (inactive)	> 73.5 µM (inactive)	> 74 µM (inactive)	> 86.5 µM (inactive)	27.7 µM (inactive)	57.4 µM (inactive)	67.8 µM (inactive)	54.5 µM (inactive)	17.9 µM (inactive)	22.7 µM (inactive)	> 100 µM (inactive)	5.6 µM (inactive)	0.395 µM (active)	> 100 µM (inactive)
CCOC(=O)c1c(C)n(CCN2CCN(C)CC2)c2ccc(OC)cc12	34.8 µM (inactive)	19.6 µM (inactive)	14 µM (inactive)	20.7 µM (inactive)	20.4 µM (inactive)	90.2 µM (inactive)	50.9 µM (inactive)	17 µM (inactive)	65 µM (inactive)	16.6 µM (inactive)	35.1 µM (inactive)	44.3 µM (inactive)	24.5 µM (inactive)	28.6 µM (inactive)	55.5 µM (inactive)	32.3 µM (inactive)	21.9 µM (inactive)	> 100 µM (inactive)	34.4 µM (inactive)	16.5 µM (inactive)
Nc1ccc(-c2ccc(Nc3cc(S(=O)(=O)O)c(N)c4c3C(=O)c3ccccc3C4=O)cc2)c(S(=O)(=O)O)c1	> 100 µM (inactive)	> 100 µM (inactive)	> 100 µM (inactive)	> 100 µM (inactive)	> 100 µM (inactive)	> 100 µM (inactive)	> 100 µM (inactive)	> 100 µM (inactive)	> 100 µM (inactive)	> 100 µM (inactive)	> 100 µM (inactive)	> 100 µM (inactive)	> 100 µM (inactive)	> 100 µM (inactive)	> 100 µM (inactive)	> 100 µM (inactive)	> 100 µM (inactive)	> 100 µM (inactive)	> 100 µM (inactive)	> 100 µM (inactive)
c1cncc(CNCc2cccnc2)c1	> 100 µM (inactive)	> 100 µM (inactive)	> 100 µM (inactive)	> 100 µM (inactive)	> 100 µM (inactive)	> 100 µM (inactive)	> 100 µM (inactive)	> 100 µM (inactive)	> 100 µM (inactive)	> 100 µM (inactive)	> 100 µM (inactive)	> 100 µM (inactive)	> 100 µM (inactive)	> 100 µM (inactive)	> 100 µM (inactive)	> 100 µM (inactive)	> 100 µM (inactive)	> 100 µM (inactive)	> 100 µM (inactive)	> 100 µM (inactive)
C[C@]12CC[C@@H]3c4cc(OCC(F)(F)F)c(O)cc4CC[C@H]3[C@@H]1CC[C@@H]2O	1.54 µM (inactive)	0.287 µM (active)	9.31 µM (inactive)	0.438 µM (active)	1.17 µM (inactive)	2.75 µM (inactive)	1.86 µM (inactive)	2.32 µM (inactive)	7.74 µM (inactive)	2.94 µM (inactive)	8.65 µM (inactive)	4.06 µM (inactive)	0.536 µM (active)	0.558 µM (active)	2.83 µM (inactive)	11.6 µM (inactive)	0.673 µM (active)	8.17 µM (inactive)	5.41 µM (inactive)	11.8 µM (inactive)
CCCCOC(=O)N[C@H]1CCc2cc(OC)c(OC)c(OC)c2-c2ccc(SC)c(=O)cc21	< 0.01 µM (active)	< 0.01 µM (active)	< 0.01 µM (active)	< 0.0369 µM (active)	< 0.01 µM (active)	< 0.0153 µM (active)	< 0.01 µM (active)	< 0.01 µM (active)	< 0.0114 µM (active)	< 0.01 µM (active)	< 0.0231 µM (active)	< 0.01 µM (active)	< 0.01 µM (active)	< 0.01 µM (active)	< 0.01 µM (active)	< 0.01 µM (active)	< 0.01 µM (active)	16.3 µM (inactive)	18.1 µM (inactive)	0.752 µM (active)
CCCCCCCC(=O)OC[n+]1ccc(-c2c(COC(=O)NC(C)C)c(COC(=O)NC(C)C)c3n2CCC3)cc1	53.5 µM (inactive)	> 94.8 µM (inactive)	26.4 µM (inactive)	34.4 µM (inactive)	22.1 µM (inactive)	88.9 µM (inactive)	33.4 µM (inactive)	13.8 µM (inactive)	20.4 µM (inactive)	20.1 µM (inactive)	42.4 µM (inactive)	> 100 µM (inactive)	48.8 µM (inactive)	26.4 µM (inactive)	52.6 µM (inactive)	56.6 µM (inactive)	44.9 µM (inactive)	> 79.6 µM (inactive)	> 64.9 µM (inactive)	> 100 µM (inactive)
Cc1cccc2c(N)c3cccc(C(=O)NCCNCCN)c3nc12	3.68 µM (inactive)	16 µM (inactive)	7.6 µM (inactive)	8.28 µM (inactive)	9.55 µM (inactive)	1.16 µM (inactive)	0.179 µM (active)	7.4 µM (inactive)	3.8 µM (inactive)	5.28 µM (inactive)	12.3 µM (inactive)	3.89 µM (inactive)	1.96 µM (inactive)	0.0826 µM (active)	1.24 µM (inactive)	0.533 µM (active)	15.4 µM (inactive)	10.4 µM (inactive)	7.36 µM (inactive)	15.8 µM (inactive)
COc1ccc(NC(=S)N/N=C(\C)c2nc3cccnc3[nH]2)cc1	3.13 µM (inactive)	11.7 µM (inactive)	4.4 µM (inactive)	3.58 µM (inactive)	4.35 µM (inactive)	5.32 µM (inactive)	5.65 µM (inactive)	3.93 µM (inactive)	4.29 µM (inactive)	3.18 µM (inactive)	1.97 µM (inactive)	5.47 µM (inactive)	5.9 µM (inactive)	7.03 µM (inactive)	19.6 µM (inactive)	7.5 µM (inactive)	7.59 µM (inactive)	2.32 µM (inactive)	3.26 µM (inactive)	6.46 µM (inactive)
NC(CSCc1ccc(I)cc1)C(=O)O (stereo not given)	> 100 µM (inactive)	> 100 µM (inactive)	> 100 µM (inactive)	> 100 µM (inactive)	> 100 µM (inactive)	> 100 µM (inactive)	> 100 µM (inactive)	> 100 µM (inactive)	> 100 µM (inactive)	> 100 µM (inactive)	> 100 µM (inactive)	> 100 µM (inactive)	> 100 µM (inactive)	> 100 µM (inactive)	80.7 µM (inactive)	> 100 µM (inactive)	> 100 µM (inactive)	> 100 µM (inactive)	> 100 µM (inactive)	> 100 µM (inactive)
COc1ccccc1NC(=O)C1=C(C)NC(C)=C(C(=O)Nc2ccccc2OC)C1c1ccco1	4.31 µM (inactive)	2.74 µM (inactive)	3.98 µM (inactive)	5.19 µM (inactive)	4.52 µM (inactive)	7.71 µM (inactive)	13.4 µM (inactive)	3.12 µM (inactive)	6.41 µM (inactive)	8.07 µM (inactive)	9.27 µM (inactive)	3.98 µM (inactive)	23.6 µM (inactive)	2.66 µM (inactive)	3.1 µM (inactive)	6.28 µM (inactive)	4.2 µM (inactive)	10.9 µM (inactive)	11.9 µM (inactive)	19.7 µM (inactive)
Cc1c(/N=C\c2ccc(N(CCC#N)CCC#N)cc2)c(=O)n(-c2ccccc2)n1C	25.7 µM (inactive)	> 100 µM (inactive)	45.7 µM (inactive)	> 100 µM (inactive)	> 100 µM (inactive)	41.8 µM (inactive)	> 93.5 µM (inactive)	> 100 µM (inactive)	22.5 µM (inactive)	> 100 µM (inactive)	> 100 µM (inactive)	> 100 µM (inactive)	77.4 µM (inactive)	> 100 µM (inactive)	38 µM (inactive)	31.5 µM (inactive)	> 100 µM (inactive)	> 93.5 µM (inactive)	> 100 µM (inactive)	> 100 µM (inactive)
COc1ccc(OC)c(N2C(=O)/C(=C\c3ccccc3)SC2c2cc(OC)c(OC)c(OC)c2)c1 (stereo not given)	47.5 µM (inactive)	22 µM (inactive)	17.5 µM (inactive)	50.9 µM (inactive)	71.4 µM (inactive)	> 100 µM (inactive)	> 100 µM (inactive)	4.06 µM (inactive)	1.09 µM (active)	> 100 µM (inactive)	> 89.7 µM (inactive)	61.5 µM (inactive)	> 100 µM (inactive)	30.9 µM (inactive)	> 78 µM (inactive)	> 100 µM (inactive)	> 100 µM (inactive)	> 83.6 µM (inactive)	12.4 µM (inactive)	> 100 µM (inactive)
COc1ccc(NC(=O)C2=C(SC)C(C#N)C(=O)N=C2N)cc1 (stereo not given)	> 100 µM (inactive)	> 100 µM (inactive)	14 µM (inactive)	54.3 µM (inactive)	> 100 µM (inactive)	> 100 µM (inactive)	> 100 µM (inactive)	> 100 µM (inactive)	> 100 µM (inactive)	> 100 µM (inactive)	72.1 µM (inactive)	0.369 µM (active)	> 100 µM (inactive)	15.1 µM (inactive)	89.1 µM (inactive)	> 100 µM (inactive)	26.9 µM (inactive)	> 100 µM (inactive)	49.4 µM (inactive)	> 100 µM (inactive)
